According to ChEMBL document CHEMBL5244261, “Insights of tankyrases: A novel target for drug discovery” (Eur J Med Chem, 2020):

These compounds were tested against T1, Poly [ADP-ribose] polymerase tankyrase-1 (Homo sapiens, UniProt O95271) (assay: Inhibition of human recombinant […] TNKS1 (1030 to 1317 residues) expressed in Escherichia coli assessed as inhibition by fluorescence based analysis).
T1 sequence (O95271 whole entry): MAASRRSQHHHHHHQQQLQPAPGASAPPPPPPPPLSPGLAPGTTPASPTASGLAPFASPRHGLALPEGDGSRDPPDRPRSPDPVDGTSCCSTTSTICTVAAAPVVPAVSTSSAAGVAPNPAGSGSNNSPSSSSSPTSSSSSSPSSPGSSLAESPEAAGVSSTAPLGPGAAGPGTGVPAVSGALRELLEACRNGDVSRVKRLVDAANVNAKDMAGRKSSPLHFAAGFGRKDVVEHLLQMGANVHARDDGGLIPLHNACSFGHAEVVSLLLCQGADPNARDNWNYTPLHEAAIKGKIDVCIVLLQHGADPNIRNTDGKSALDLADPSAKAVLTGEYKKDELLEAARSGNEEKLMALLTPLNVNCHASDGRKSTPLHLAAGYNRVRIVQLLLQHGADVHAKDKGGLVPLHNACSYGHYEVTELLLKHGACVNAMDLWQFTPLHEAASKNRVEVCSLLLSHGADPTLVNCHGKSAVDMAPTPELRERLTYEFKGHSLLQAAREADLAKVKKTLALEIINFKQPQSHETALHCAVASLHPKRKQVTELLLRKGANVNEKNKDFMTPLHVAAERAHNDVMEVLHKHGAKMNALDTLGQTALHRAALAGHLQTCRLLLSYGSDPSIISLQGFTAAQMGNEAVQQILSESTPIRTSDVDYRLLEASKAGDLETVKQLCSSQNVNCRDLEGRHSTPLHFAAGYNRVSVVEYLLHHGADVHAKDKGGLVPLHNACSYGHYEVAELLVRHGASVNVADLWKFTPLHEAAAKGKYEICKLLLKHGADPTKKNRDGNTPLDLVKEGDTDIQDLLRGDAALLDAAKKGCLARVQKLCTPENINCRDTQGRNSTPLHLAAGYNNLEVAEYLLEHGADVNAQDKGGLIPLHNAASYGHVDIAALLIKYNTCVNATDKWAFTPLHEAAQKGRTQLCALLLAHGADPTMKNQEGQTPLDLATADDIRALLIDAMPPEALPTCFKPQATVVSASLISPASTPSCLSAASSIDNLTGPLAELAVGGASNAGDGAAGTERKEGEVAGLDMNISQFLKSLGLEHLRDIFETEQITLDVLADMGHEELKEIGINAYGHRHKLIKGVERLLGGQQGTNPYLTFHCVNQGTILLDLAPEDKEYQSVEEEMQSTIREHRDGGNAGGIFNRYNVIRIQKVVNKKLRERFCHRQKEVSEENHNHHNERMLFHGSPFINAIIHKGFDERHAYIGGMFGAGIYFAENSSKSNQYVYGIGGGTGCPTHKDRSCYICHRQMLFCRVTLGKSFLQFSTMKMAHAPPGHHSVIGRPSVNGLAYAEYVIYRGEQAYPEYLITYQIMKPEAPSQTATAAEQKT
`O=C(Nc1ccc(-c2nc3ccccc3c(=O)[nH]2)cc1)c1cccs1` was tested, and the IC50 was 21 nM. For `COC(=O)c1ccc(-c2nc3ccccc3c(=O)[nH]2)cc1`, the IC50 was 23 nM. In the case of `O=C1OCCN1c1ccc(-c2nc3ccccc3c(=O)[nH]2)cc1`, the IC50 is reported as 15 nM. In the case of `CC1(c2ccc(-c3nc4ccccc4c(=O)[nH]3)cc2)NC(=O)NC1=O` (stereo not given), the IC50 is reported as 5 nM. `NS(=O)(=O)c1ccc(-c2nc3ccccc3c(=O)[nH]2)cc1` was tested, and the IC50 was 12 nM.
